Active and inactive are the calls of the source. The rule behind the calls is not given here.

For data set [1], the system named is PC-3. Put plainly: Antiproliferative activity against human PC3 cells after 3 days by NR assay. Type of data set: functional, cell-based.
Data set [2] concerns the target T1, Androgen receptor (Homo sapiens) (UniProt P10275).
T1 sequence (whole entry): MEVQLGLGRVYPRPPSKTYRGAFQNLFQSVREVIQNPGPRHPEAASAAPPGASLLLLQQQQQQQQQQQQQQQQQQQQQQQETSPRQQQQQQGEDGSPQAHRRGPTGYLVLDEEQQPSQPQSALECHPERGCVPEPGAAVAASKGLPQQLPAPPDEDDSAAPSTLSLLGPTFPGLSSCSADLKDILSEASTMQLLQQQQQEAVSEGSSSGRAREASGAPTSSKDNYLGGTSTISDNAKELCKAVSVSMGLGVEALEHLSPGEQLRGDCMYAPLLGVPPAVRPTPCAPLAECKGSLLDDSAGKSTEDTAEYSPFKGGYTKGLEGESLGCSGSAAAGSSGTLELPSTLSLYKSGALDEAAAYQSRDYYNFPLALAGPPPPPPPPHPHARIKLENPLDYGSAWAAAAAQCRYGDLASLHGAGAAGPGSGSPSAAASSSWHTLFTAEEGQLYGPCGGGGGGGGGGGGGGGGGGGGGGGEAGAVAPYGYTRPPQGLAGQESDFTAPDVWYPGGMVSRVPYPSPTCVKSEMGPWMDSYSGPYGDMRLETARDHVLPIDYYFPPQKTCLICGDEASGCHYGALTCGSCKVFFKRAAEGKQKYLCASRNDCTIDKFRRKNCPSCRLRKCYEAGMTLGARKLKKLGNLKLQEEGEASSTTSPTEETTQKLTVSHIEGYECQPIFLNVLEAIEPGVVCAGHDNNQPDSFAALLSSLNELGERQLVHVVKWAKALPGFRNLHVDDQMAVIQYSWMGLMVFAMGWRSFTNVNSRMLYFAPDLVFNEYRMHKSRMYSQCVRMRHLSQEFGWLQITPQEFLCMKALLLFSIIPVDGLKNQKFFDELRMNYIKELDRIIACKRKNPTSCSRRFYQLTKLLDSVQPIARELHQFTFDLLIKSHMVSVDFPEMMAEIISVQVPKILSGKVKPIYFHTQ
The data set is described as follows: Inhibition of DHT binding to human recombinant androgen receptor ligand binding domain at 15 uM by fluorescence polarization. The arrangement: scale not given: the % may be the effect or the level left.

Data set [3] is described as follows: (§1) Inhibition of 5-alpha-reductase in rat liver microsome assessed as conversion of [14C] testosterone to [14C] dihydrotestosterone. Type of data set: microsomes.
The next data set is filed under the species Rattus norvegicus. The data set is described as §1. Type of data set: microsomes.
For data set [4], the system named is LNCaP. Put plainly: Growth inhibition of human LNCAP cells assessed as decrease in cell viability after 3 days by NR assay. Type of data set: functional, cell-based.
Data set [5] relates to LNCaP. The data set is described as follows: Growth inhibition against testosterone-induced human LNCAP cell proliferation assessed as decrease in cell viability after 3 dayssby NR assay. Type of data set: functional, cell-based.
Data set [6] concerns LNCaP. Put plainly: Growth inhibition against dihydrotestosterone-induced human LNCAP cell proliferation assessed as decrease in cell viability after 3 dayssby NR assay. Type of data set: functional, cell-based.
Data set [7] deals with PC-3. The data set is described as follows: Antiproliferative activity against human PC3 cells at 12.5 to 50 uM after 3 days by NR assay. Type of data set: functional, cell-based.
Data set [8] in a line: Inhibition of osteoclastogenesis in RANKL-stimulated mouse RAW264 cells at 12.5 uM after 3 days by TRAP assay. Type of data set: functional. The following applies: RAW264.7, 72 h.
Another data set concerns RAW264. The data set is described as follows: Inhibition of osteoclastogenesis in RANKL-stimulated mouse RAW264 cells at 25 uM after 3 days by TRAP assay. Type of data set: functional, cell-based.
The nature of data set [9]: Cytotoxicity against mouse RAW264 cells assessed as cell number at 12.5 uM after 3 days by WST1 assay. Type of data set: cell-based. The following applies: raw264, 72 h.
Data set [10] is described as follows: Cytotoxicity against mouse RAW264 cells assessed as viable cells at 25 uM after 3 days by WST1 assay. Type of data set: cell-based. The conditions noted are these: read-out: Activity.

In the case of `C/C(=C\CC[C@@H](C)[C@H]1CC[C@@]2(C)C3=CC[C@H]4C(C)(C)[C@@H](O)CC[C@]4(C)C3=CC[C@]12C)CO`, in the data set with PC-3 [1], the outcome was inactive.

For the compound `C/C(=C/CC[C@@H](C)[C@H]1CC[C@@]2(C)C3=C(CC[C@]12C)[C@@]1(C)CCC(=O)C(C)(C)[C@@H]1CC3=O)C(=O)O` [GANODERIC ACID DM], the Activity is 50% in data set [2]; “Dose-dependent effect” in the data set filed under Rattus norvegicus; “Dose-dependent effect” in the data set on LNCaP [4]; “Dose-dependent effect” in the data set on LNCaP [5]; “Dose-dependent effect” with LNCaP [6]; “Non-toxic” in [9]. Besides, the IC50 in [3] came out at 10.6 µM. For the same compound, in the data set on PC-3 [7], the outcome was Active. Besides, in data set [8], 12.5 µM produced 40% inhibition. The outcome with RAW264 was inactive. The viability at 72 h, 25 µM in data set [10] was found to be 72%.

Turning to `CC(C)(C)NC(=O)[C@H]1CC[C@H]2[C@@H]3CC[C@H]4NC(=O)C=C[C@]4(C)[C@H]3CC[C@]12C` [FINASTERIDE], the IC50 in [3] amounted to 0.73 µM.

With `CC/C=C\C/C=C\C/C=C\CCCCCCCC(=O)O` [LINOLENIC ACID], the IC50 in data set [3] came out at 116 µM.

The record behind these values is ChEMBL document CHEMBL1153984, “Ganoderic acid DM: anti-androgenic osteoclastogenesis inhibitor” (Bioorg Med Chem Lett, 2009).
